In the experiment the test system is C57BL/6 mice. Nature of the experiment: In vivo food intake and body weight in C57BL/6 mice. As to conditions: 30 nmol/kg subcutaneously every day for 10 days. The procedure:
10 week old male C57BL/6 mice were injected everyday subcutaneously with 30 nmol/kg of the fusion proteins for 10 days (n=5/group), semaglutide was studied in parallel as a control. Body weight (BW) was measured daily for each individual animal and food intake was measured daily for each entire treatment group. Day 1 and Day 10 are the first day and the last day of treatment. % BW loss=100*(BW on Day n−BW on Day 1)/(BW on Day 1). Cumulative food intake on Day n represents sum of food intake from Day 1 to Day n. Data are indicated as mean values and standard error (SEM) or pooled values. Body weight reduction on Day 11 is calculated by −1*(% BW loss of treatment group-% BW loss of vehicle group); Cumulative food intake reduction on Day 11 is calculated by −100*(cumulative food intake of treatment group−cumulative food intake of vehicle group)/cumulative food intake of vehicle group.

Regarding semaglutide [reference compound], the “Body weight reduction at 30 nmol/kg (% reduction compared to vehicle) (Day 11)” value was 7.27% and the “Cumulative food intake reduction at 30 nmol/kg (% reduction compared to vehicle) (Day 11)” value is reported as 11.8%.

The values are drawn from patent publication US11884711B2, “Fusion proteins of GDF15 and use thereof” (BEIJING QL BIOPHARMACEUTICAL CO., LTD., priority 2020, dated 2024).
